Test results reported in patent US7652037B2, “Methods of lowering lipid levels in a mammal” (City Of Hope, priority 2003, dated 2010).
Marks after values point to notes of the source that are not given here.

Columns and labels:
Human LDL = experiment: Cu++-mediated LDL oxidation, TBARS (Example 16); conditions: 250 μM compound, followed for 5 hours; control lag phase about 2 hours
Protocol: (§1) Human LDL was isolated from plasma of healthy donors by single vertical spin centrifugation (see Chung et al., Methods Enzymol. 128:181-209, 1986) and used within 24-48 hours of preparation. LDL (50 μg/mL) was incubated at 37° C. in 50 mM chelex-treated phosphate buffer, pH 7.4, alone or in the presence of 5 μM CuCl2 or 5 μM CuCl2 plus various concentrations of the LR compounds. After 5 hours of incubation, aliquots from each reaction mixture were removed for measurement of thiobarbituric acid-reacting substances (TBARS) as described in Satoh, Clin. Chim. Acta 90:37-43, 1978. Briefly, 250 μL of 20% trichloroacetic acid was added to 500 μL of sample aliquot, followed by 750 μL of 1% […]. The samples then were vortexed and incubated in a boiling water bath for 10 minutes. Upon cooling, the samples were centrifuged for 5 minutes at 5000 rpm. Absorbance of the supernatant was taken at 532 nm, and expressed as MDA equivalents using 1,1,3,3-tetramethoxypropane as standards. For fatty acid oxidation studies, linoleic acid (5#mM) was incubated alone or in the presence of 1 mM LR compound in […] phosphate buffer, pH 7.4, for 7 days at 37° C. Aliquots from each reaction mixture were withdrawn periodically for measurement of TBARS as described above.
Results are shown in FIG. 23A, where values are provided as means±SD of two independent experiments (n=4 for each treatment). In separate experiments, the time course for the oxidative modification fo LDL by Cu^++ in the presence of 250 μM compound was followed for 5 hours and aliquots for each time interval were assayed for TBARS. Values in FIG. 23B are means±SD of two independent experiments (n=4 per treatment).

STZ-Diabetic Rats [1] = experiment: Body weight and glycemia in STZ-diabetic and control rats (Example 1); assay type: in vivo, rat; conditions: for Body Weight / HbA1c / Plasma Glucose: mean ± SD; for effect on plasma glucose and glycated hemoglobin / weight compared to the diabetic control rats: diabetic rats; for weight compared to the diabetic control rats: only LR-90 statistically significant
Protocol: (§2) Male Sprague-Dawley rats (about 175 to 200 g) were adapted for one week prior to treatment, then rendered diabetic by intra-peritoneal injection of STZ (65 mg/kg in citrate buffer, pH 4.5) after an overnight fast. Control (non-diabetic) animals were injected with the buffer only. Diabetes was confirmed by measuring the plasma glucose concentrations 7 days after Streptozotocin (STZ)-injection. Only animals with a plasma glucose concentration greater than 20 mmol were classified as diabetic and used in the study. These diabetic rats were divided randomly into an untreated diabetic control group and a diabetic treatment group. The treatment group received an LR compound at 50 mg/l in their drinking water throughout the duration of the study (32 weeks for LR-90; 30 weeks for LR-9 and LR-74). All animals were housed individually and were given free access to food and water.
(§3) Blood (from the tail vein) and urine samples were collected from rats for glycemic control analysis and albuminuria measurements. Glycemia was monitored every 8 weeks by measuring plasma glucose and glycated hemoglobin. Plasma or serum also was tested for total cholesterol and total triglycerides. Progression of renal dysfunction was assessed by measuring urinary albumin to creatinine ratio (UA/Cr) and serum or plasma creatinine. For measurement of urinary albumin and creatinine concentrations, rats were housed in metabolic cages for 24 hours and urine was collected in a collection beaker with several drops of toluene to inhibit microbial growth.
At the end of study, the rats were weighed and anaesthetized with isoflourane and blood was drawn by heart puncture and transferred into heparinized and non-heparinized vacutainer tubes on ice. These blood samples were later centifuged for plasma and serum collection respectively, and stored at −70° C. until the time of analysis. Rats were killed by over-anesthetization and cardiac puncture and the kidneys were removed immediately, weighed, decapsulated and rinsed in PBS buffer. Sections of the kidneys were stored in 10% NBF for subsequent microscopic examinations and immunohistochemistry. The tail of each individual rat was cut, removed and stored in 50 mL conical tubes at −70° C.
Statistical analyses of data presented in this example and the following examples were first analyzed by ANOVA and post-hoc comparisons between group means were analyzed using unpaired Student's t test. A p value of less than 0.05 was considered statistically significant. Data are presented as means±SD.

STZ-Diabetic Rats [2] = experiment: Renal function parameters in STZ-diabetic rats (Example 3); assay type: in vivo, rat; conditions: for Plasma Creatine / Urinary Albumin / Urinary Albumin/Creatine Ratio: mean ± SD; for decrease of elevated plasma creatinine concentrations: diabetic rats
Protocol: as §2, §3
Urinary albumin, plasma creatinine concentration, and urinary albumin/creatine ratio (UA/Cr) were used as indicators of renal function.

[3] = Kinetics of linoleic acid oxidation, TBARS; conditions: 5 mM linoleic acid, 1 mM compound, pH 7.4, 7 days at 37° C.
Protocol: as §1
Aliquots were withdrawn periodically and assayed by the TBARS method as above. The MDA equivalent was estimated based on standards.

[4] = Inhibition of copper-catalyzed oxidation of ascorbic acid (Cu2+ chelating activity); conditions: 500 nmol/L CuCl2, 500 μmol/L ascorbic acid, phosphate buffer pH 7.4, 60 minutes; read-out: IC50, concentration that inhibited the rate of AA oxidation by 50%
Protocol: In vitro measurement of the kinetics of inhibition of copper-catalyzed oxidation of ascorbic acid was performed according to the methods of Price et al., J. Biol. Chem. 276:48967-48972, 2001. Briefly, CuCl2 and various concentrations of inhibitor compounds were pre-incubated in chelex-treated 20 mmol/L phosphate buffer, pH 7.4, for 5 minutes. Ascorbic acid then was added (50 μL of 10 mmol/L in water) to initiate the reaction (1 mL total reaction volume). The final concentrations of CuCl2 and ascorbic acid in the reaction were 500 nmol/L and 500 μmol/L, respectively. Aliquots (135 μL) were removed at 0 and 60 minutes and transferred to autoinjector vials containing 15 μL of 10 mmol/l DTPA. Samples were analyzed by reversed phase HPLC on an XTerra™ RP18 column (250 mm×4.6 mm, 5 μm) with an XTerra™ RP18 5 μm guard column using a Waters® 2690 Separator Module equipped with auto-injector and Millenium® 32 software. Solvents and gradient were all used as described in Dillon et al., Life Sci. 72:1583-1594, 2003. The absorbance of ascorbic acid was measured at 244 nm and the peak area was obtained to estimate the percent of ascorbic acid remaining versus time. For each inhibitor compound, the concentration that inhibited the rate of AA oxidation by 50% (IC50), was calculated with respect to the control using Prism™ software.

[5] = STZ-diabetic (D) rats, 50 mg/l in drinking water, 30 weeks
[6] = non-diabetic (ND) rats, 50 mg/l in drinking water, 30 weeks
[7] = STZ-diabetic (D) rats, 30 weeks
[8] = non-diabetic (ND) rats, 30 weeks
[9] = STZ-diabetic (D) rats, LR-90 50 mg/l in drinking water, 32 weeks
[10] = non-diabetic (ND) rats, LR-90 50 mg/l in drinking water, 32 weeks
[11] = STZ-diabetic (D) rats, LR-90, 32 weeks
[12] = non-diabetic (ND) rats, LR-90, 32 weeks

Row | Molecule | time course of Cu++-mediated oxidation of LDL (Human LDL) | Body Weight (STZ-Diabetic Rats [1]; [5]) [g] | HbA1c (STZ-Diabetic Rats [1]; [5]) | Plasma Glucose (STZ-Diabetic Rats [1]; [5]) [mmol/L] | effect on plasma glucose and glycated hemoglobin (STZ-Diabetic Rats [1]; 50 mg/l in drinking water) | weight compared to the diabetic control rats (STZ-Diabetic Rats [1]; 50 mg/l in drinking water) | Body Weight (STZ-Diabetic Rats [1]; [6]) [g] | HbA1c (STZ-Diabetic Rats [1]; [6]) [%] | Plasma Glucose (STZ-Diabetic Rats [1]; [6]) [mmol/L] | Plasma Creatine (STZ-Diabetic Rats [2]; [7]) | Urinary Albumin (STZ-Diabetic Rats [2]; [7]) | Urinary Albumin/Creatine Ratio (STZ-Diabetic Rats [2]; [7]) | decrease of elevated plasma creatinine concentrations (STZ-Diabetic Rats [2]) [%] | Plasma Creatine (STZ-Diabetic Rats [2]; [8]) [mg/dL] | Urinary Albumin (STZ-Diabetic Rats [2]; [8]) [mg/24 hr] | Urinary Albumin/Creatine Ratio (STZ-Diabetic Rats [2]; [8]) | linoleic acid (LA) oxidation, MDA equivalents [3] | IC50 [4] [µM] | other results
1 | CC(C)(Oc1ccc(NC(=O)c2ccc3ccccc3c2)cc1)C(=O)O [LR-9, 4-(2-napthylcarboxamido) phenoxyisobutyric acid] | significantly inhibited the rate of oxidation after 2 hours | 288.0 ± 71.8 | 1.95 ± 0.22^b % | 27.1 ± 1.3 | did not affect | moderate increase in weight | 681.0 ± 9.3 | 0.90 ± 0.08 | 8.2 ± 0.9 | 1.79 ± 0.95^c mg/dl | 18.0 ± 9.1^c mg/24 hr | 1.36 ± 0.93^c | ~50 | 0.42 ± 0.02 | 4.8 ± 2.3 | 0.33 ± 0.13 | totally prevented LA oxidation | 200 | –
2 | CC(Oc1cccc2cccnc12)C(=O)O (stereo not drawn) [LR-74, 2-(8-quinolinoxy) propionic acid] | no observable propagation phase | 314.7 ± 53.0 | 2.10 ± 0.30% | 26.9 ± 1.5 | did not affect | moderate increase in weight | 744.0 ± 51.8 | 0.87 ± 0.12 | 6.8 ± 0.8 | 1.64 ± 1.07^c mg/dl | 14.3 ± 9.07^c mg/24 hr | 1.23 ± 0.60^c | ~50 | 0.42 ± 0.05 | 4.6 ± 2.4 | 0.30 ± 0.16 | did not totally prevent the oxidation | 50 | –
3 | methylene bis(4,4′-(2-chlorophenylureidophenoxyisobutyric acid) [LR-90] | no observable propagation phase | – | – | – | did not affect | moderate increase in weight | – | – | – | – | – | – | ~50 | – | – | – | totally prevented LA oxidation | 275 | Body Weight (STZ-Diabetic Rats [1]; [9]): 337.6 ± 26.6^c g; HbA1c (STZ-Diabetic Rats [1]; [9]): 3.3 ± 0.4%; Plasma Glucose (STZ-Diabetic Rats [1]; [9]): 28.9 ± 3.4 mmol/L; Body Weight (STZ-Diabetic Rats [1]; [10]): 723.0 ± 21.9 g; HbA1c (STZ-Diabetic Rats [1]; [10]): 1.5 ± 0.1%; Plasma Glucose (STZ-Diabetic Rats [1]; [10]): 6.8 ± 0.7 mmol/L; Plasma Creatine (STZ-Diabetic Rats [2]; [11]): 1.50 ± 0.53^c mg/dl; Urinary Albumin (STZ-Diabetic Rats [2]; [11]): 23.6 ± 4.5^c mg/24 hr; Urinary Albumin/Creatine Ratio (STZ-Diabetic Rats [2]; [11]): 1.57 ± 0.49^c; Plasma Creatine (STZ-Diabetic Rats [2]; [12]): 0.58 ± 0.07 mg/dL; Urinary Albumin (STZ-Diabetic Rats [2]; [12]): 8.9 ± 1.5 mg/24 hr; Urinary Albumin/Creatine Ratio (STZ-Diabetic Rats [2]; [12]): 0.57 ± 0.16
